Laboratory results reported in ChEMBL document CHEMBL1201862, “PubChem BioAssay data set” (2004).
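1) Cells in 96-well plates. 2) Compound, 48 h, 5 concentrations. 3) Linear interpolation between surrounding doses. 4) Unreached endpoint = highest concentration. GI50 = concentration required for 50% inhibition of growth.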 The source made the active and inactive calls. No stated cut-off is given here; in the data, active = GI50 up to about 1.1 µM and inactive = higher.

Key:
Assay in all cases: DTP human tumour cell line panel, 48 h
CAKI-1 = tested on: CAKI-1
EKVX = tested on: EKVX
HL-60 = tested on: HL-60
HT-29 = tested on: HT-29
IGROV-1 = tested on: IGROV-1
K562 = tested on: K562
KM12 = tested on: KM12
Malme-3M = tested on: Malme-3M
NCI-H460 = tested on: NCI-H460
NCI-H522 = tested on: NCI-H522
OVCAR-3 = tested on: OVCAR-3
OVCAR-5 = tested on: OVCAR-5
OVCAR-8 = tested on: OVCAR-8
RPMI-8226 = tested on: RPMI-8226
SK-OV-3 = tested on: SK-OV-3
SN12C = tested on: SN12C
SNB-75 = tested on: SNB-75
SW-620 = tested on: SW-620
UACC-257 = tested on: UACC-257
RXF 393 = tested on: RXF 393

Measured: GI50

COc1ccc(N2C(=O)/C(=C(\C)c3cc4ccccc4oc3=O)N=C2c2cc([N+](=O)[O-])ccc2Cl)cc1
inactive: CAKI-1 29.6 µM | EKVX > 100 µM | HL-60 22.9 µM | HT-29 35.7 µM | IGROV-1 43.3 µM | K562 10.8 µM | KM12 22.3 µM | Malme-3M 45.2 µM | NCI-H460 41.9 µM | NCI-H522 11.5 µM | OVCAR-3 73.8 µM | OVCAR-5 > 100 µM | OVCAR-8 > 100 µM | RPMI-8226 26.5 µM | SK-OV-3 57.7 µM | SN12C 35 µM | SNB-75 33.3 µM | SW-620 33.9 µM | UACC-257 44 µM

O=c1ccn([C@@H]2C=C(CO)[C@@H](O)[C@H]2O)c(=O)[nH]1
inactive: CAKI-1 > 625 µM | HL-60 > 625 µM | HT-29 > 625 µM | IGROV-1 > 625 µM | KM12 > 625 µM | Malme-3M > 625 µM | NCI-H460 > 625 µM | NCI-H522 > 625 µM | OVCAR-3 > 625 µM | OVCAR-8 > 625 µM | RXF 393 > 625 µM | SK-OV-3 > 625 µM | SN12C > 625 µM | SNB-75 90.4 µM | SW-620 > 625 µM

COc1ccc(C2COc3cc(OC(C)=O)c(OC(C)=O)cc3C2)cc1 (centres undefined)
inactive: CAKI-1 23 µM | EKVX 27.2 µM | HL-60 2.54 µM | HT-29 28.2 µM | IGROV-1 26.2 µM | K562 16.3 µM | KM12 11.4 µM | Malme-3M 23.2 µM | NCI-H460 13.9 µM | NCI-H522 1.97 µM | OVCAR-3 19.6 µM | OVCAR-5 27.1 µM | OVCAR-8 18.8 µM | RPMI-8226 5.97 µM | RXF 393 15.5 µM | SK-OV-3 40.1 µM | SN12C 17.5 µM | SNB-75 7.76 µM | SW-620 14.3 µM | UACC-257 23.6 µM

CCOP(=O)(COCCn1ncc(=O)[nH]c1=O)OCC
inactive: CAKI-1 > 100 µM | EKVX > 100 µM | HL-60 > 100 µM | HT-29 > 100 µM | IGROV-1 > 100 µM | KM12 > 100 µM | Malme-3M > 100 µM | NCI-H460 > 100 µM | NCI-H522 > 100 µM | OVCAR-3 > 100 µM | OVCAR-5 > 100 µM | OVCAR-8 > 100 µM | RPMI-8226 > 100 µM | RXF 393 > 100 µM | SN12C > 100 µM | SNB-75 > 100 µM | SW-620 > 100 µM

COc1cccc2c1C(=O)c1c(O)c3c(c(O)c1C2=O)C[C@@](O)(C(=O)CN1CCOCC1)C[C@@H]3OC1CC(N)C(O)C(C)O1 (some centres undefined)
inactive: EKVX 10.4 µM | IGROV-1 5.7 µM | K562 2.9 µM | KM12 4.23 µM | Malme-3M 3.27 µM | NCI-H522 2.82 µM | OVCAR-5 12.4 µM | OVCAR-8 4.47 µM | RPMI-8226 1.61 µM | RXF 393 6.41 µM | SK-OV-3 7.62 µM | SN12C 2.4 µM | SNB-75 5.07 µM | SW-620 2.34 µM
active: HL-60 0.895 µM | HT-29 0.000764 µM | NCI-H460 0.446 µM | OVCAR-3 0.000912 µM | UACC-257 0.000769 µM

CCCCN(C)/N=N/c1[nH]cnc1C(N)=O
inactive: CAKI-1 20.3 µM | EKVX > 100 µM | HL-60 60.7 µM | HT-29 > 100 µM | IGROV-1 > 77.8 µM | K562 > 80.7 µM | KM12 > 100 µM | Malme-3M > 86.9 µM | NCI-H460 > 100 µM | NCI-H522 > 100 µM | OVCAR-3 99.5 µM | OVCAR-5 > 85.1 µM | OVCAR-8 78.2 µM | RPMI-8226 > 100 µM | RXF 393 > 66.7 µM | SK-OV-3 35.8 µM | SN12C > 100 µM | SNB-75 > 100 µM | SW-620 > 100 µM | UACC-257 > 73.5 µM

O=C1C2=C(C3=NCCc4c[nH]c1c43)c1c(cc(Br)c(O)c1Br)CCN2
inactive: CAKI-1 20.3 µM | EKVX 17.8 µM | HL-60 3.48 µM | HT-29 6.59 µM | IGROV-1 13.6 µM | K562 15 µM | KM12 13.4 µM | NCI-H460 9.27 µM | NCI-H522 2 µM | OVCAR-3 2.73 µM | OVCAR-5 25.2 µM | OVCAR-8 8.53 µM | RPMI-8226 5.01 µM | RXF 393 14.8 µM | SK-OV-3 7.41 µM | SN12C 14.1 µM | SNB-75 16.3 µM | SW-620 15.2 µM | UACC-257 7.5 µM

COc1ccc(/C=c2\sc3n(c2=O)CCN=3)cc1
inactive: EKVX > 100 µM | HL-60 69.3 µM | HT-29 > 100 µM | K562 43.7 µM | KM12 > 100 µM | Malme-3M 39.1 µM | NCI-H460 > 100 µM | NCI-H522 84.5 µM | OVCAR-3 > 100 µM | OVCAR-5 > 100 µM | OVCAR-8 > 100 µM | RXF 393 31.1 µM | SK-OV-3 > 100 µM | SN12C 75.7 µM | SNB-75 57.8 µM | SW-620 > 100 µM | UACC-257 47.5 µM

CN1COCN/C1=N/C#N
inactive: CAKI-1 > 100 µM | EKVX > 100 µM | HL-60 > 100 µM | HT-29 > 100 µM | IGROV-1 > 100 µM | K562 > 100 µM | KM12 > 100 µM | Malme-3M > 100 µM | NCI-H460 > 100 µM | NCI-H522 > 100 µM | OVCAR-3 36.1 µM | OVCAR-5 > 100 µM | OVCAR-8 > 10 µM | RPMI-8226 > 100 µM | SK-OV-3 > 100 µM | SN12C > 100 µM | SNB-75 > 100 µM | SW-620 > 100 µM | UACC-257 > 100 µM

NCCCN(CCCN)CCN(CCN(CCCN)CCCN)CCN(CCCN)CCCN
inactive: CAKI-1 > 100 µM | HL-60 > 100 µM | HT-29 > 100 µM | IGROV-1 > 100 µM | K562 > 100 µM | NCI-H460 > 100 µM | NCI-H522 17 µM | OVCAR-3 > 100 µM | OVCAR-5 > 100 µM | OVCAR-8 44.6 µM | RPMI-8226 > 100 µM | SK-OV-3 48.4 µM | SN12C > 100 µM | SNB-75 4.95 µM | SW-620 > 100 µM | UACC-257 > 100 µM

CC1=NCCc2cc3[nH]c4ccccc4c3cc21
inactive: CAKI-1 5.32 µM | EKVX 41.2 µM | HL-60 12.1 µM | HT-29 14.8 µM | IGROV-1 26.9 µM | K562 9.79 µM | KM12 20.8 µM | Malme-3M 10.7 µM | NCI-H460 13.3 µM | NCI-H522 21.3 µM | OVCAR-3 50.2 µM | OVCAR-5 16.6 µM | OVCAR-8 24.6 µM | RPMI-8226 13.2 µM | RXF 393 6.4 µM | SK-OV-3 17.8 µM | SN12C 17.5 µM | SNB-75 23.2 µM | SW-620 15.7 µM | UACC-257 10.3 µM

COc1ccccc1OCC(COC(=O)Nc1ccccc1)OC(=O)Nc1ccccc1 (centres undefined)
inactive: CAKI-1 20.3 µM | EKVX > 100 µM | HL-60 40.6 µM | HT-29 59.8 µM | IGROV-1 > 100 µM | K562 > 100 µM | KM12 68.4 µM | Malme-3M 60.8 µM | NCI-H460 48.5 µM | NCI-H522 49.4 µM | OVCAR-3 > 100 µM | OVCAR-5 > 100 µM | OVCAR-8 37.4 µM | RXF 393 12.8 µM | SK-OV-3 > 100 µM | SN12C 28.5 µM | SNB-75 17.1 µM | SW-620 > 100 µM | UACC-257 > 100 µM

CCOC(=O)c1ccc(N(CCOS(C)(=O)=O)CCOS(C)(=O)=O)cc1
inactive: CAKI-1 12.6 µM | EKVX 58.3 µM | HL-60 39.9 µM | HT-29 51.6 µM | IGROV-1 88.5 µM | K562 24.3 µM | KM12 67.9 µM | Malme-3M 38.8 µM | NCI-H460 37 µM | NCI-H522 12.9 µM | OVCAR-3 36.6 µM | OVCAR-5 34.9 µM | OVCAR-8 47 µM | RPMI-8226 25.1 µM | RXF 393 20 µM | SW-620 32 µM | UACC-257 > 100 µM

C/C=C1\C[C@@H]2C(OC)Nc3cc(O)c(OC)cc3C(=O)N2C1 (some centres undefined)
active: CAKI-1 < 0.01 µM | EKVX < 0.0103 µM | HL-60 < 0.01 µM | HT-29 < 0.01 µM | IGROV-1 < 0.01 µM | K562 < 0.01 µM | KM12 0.0173 µM | Malme-3M < 0.01 µM | NCI-H460 < 0.01 µM | NCI-H522 < 0.01 µM | OVCAR-3 < 0.01 µM | OVCAR-5 < 0.01 µM | OVCAR-8 < 0.01 µM | RPMI-8226 < 0.01 µM | RXF 393 < 0.01 µM | SK-OV-3 < 0.01 µM | SN12C < 0.01 µM | SNB-75 < 0.01 µM | SW-620 < 0.01 µM | UACC-257 < 0.01 µM

C[C@H]1O[C@@H](O[C@H]2[C@@H](O)C[C@H](O[C@H]3[C@@H](O)C[C@H](O[C@H]4CC[C@@]5(C)[C@H](CC[C@@H]6[C@@H]5CC[C@]5(C)[C@@H](C7=CC(=O)OC7)CC[C@]65O)C4)O[C@@H]3C)O[C@@H]2C)C[C@H](O)[C@@H]1O [DIGITOXIN]
active: CAKI-1 0.0184 µM | EKVX 0.0286 µM | HT-29 0.0338 µM | IGROV-1 0.0365 µM | K562 < 0.0246 µM | KM12 0.0553 µM | Malme-3M 0.028 µM | NCI-H522 < 0.01 µM | OVCAR-3 < 0.0172 µM | OVCAR-5 0.0543 µM | RPMI-8226 0.0292 µM | RXF 393 0.0175 µM | SK-OV-3 0.045 µM | SN12C < 0.01 µM | SNB-75 0.0676 µM | SW-620 0.0296 µM | UACC-257 0.0582 µM
